# Earlier results, collected in patent publication US20050026902A1, “Methods and compositions for the treatment or prevention of human immunodeficiency virus and related conditions using cyclooxygenase-2 selective inhibitors and antiviral agents” (priority 2003, published 2005).
# Where two headings read alike, the source gives them in different places.
# Tests used:
# [1] = human, in vivo, po
# RT-SHIV = details: in vitro tests
# [2] = human, in vivo
# [3] = target: HIV-1 RT from the HxB2 clone (RT-SHIV) (Human immunodeficiency virus type 1 group M subtype B, UniProt P04585); details: in vitro tests
# [4] = human, in vivo, po; remark: listed apart in the source
Compound,Food Effect [1],Food Effect [2],Food Effect [4],also measured
"CC(C)c1nc(CN(C)C(=O)N[C@H](C(=O)N[C@@H](Cc2ccccc2)C[C@H](O)[C@H](Cc2ccccc2)NC(=O)OCc2cncs2)C(C)C)cs1 [Ritonavir, ritonavir]",Take with food if possible,,,
"Cc1ccnc2c1NC(=O)c1cccnc1N2C1CC1 [Nevirapine, nevirapine]",,None,,inhibition of replication of RT-SHIV (RT-SHIV): could inhibit; inhibition of the RT activity of RT-SHIV [3]: could inhibit
CC(C)CN(C[C@@H](O)[C@H](Cc1ccccc1)NC(=O)O[C@H]1CCOC1)S(=O)(=O)c1ccc(N)cc1 [Amprenavir],Avoid taking,,,
Nc1ccn([C@H]2CC[C@@H](CO)O2)c(=O)n1 [Zalcitabine],,,None,
Cc1cn([C@H]2C=C[C@@H](CO)O2)c(=O)[nH]c1=O [Stavudine],,,None,
Cc1cn([C@H]2C[C@H](N=[N+]=[N-])[C@@H](CO)O2)c(=O)[nH]c1=O [Zidovudine],,,None,
O=C1Nc2ccc(Cl)cc2[C@@](C#CC2CC2)(C(F)(F)F)O1 [Efavirenz],,Avoid taking,,
Nc1nc(NC2CC2)c2ncn([C@H]3C=C[C@@H](CO)C3)c2n1 [Abacavir],,,None,
CC(C)Nc1cccnc1N1CCN(C(=O)c2cc3cc(NS(C)(=O)=O)ccc3[nH]2)CC1 [Delavirdine],,None,,
"Cc1c(O)cccc1C(=O)N[C@@H](CSc1ccccc1)[C@H](O)CN1C[C@H]2CCCC[C@H]2C[C@H]1C(=O)NC(C)(C)C [Nelfinavir, nelfinavir]",Take with food if possible,,,
